Patent publication US6020374A, “Biologically active synthetic dye compounds” (priority 1998, dated 2000)

How the values were obtained:
PI3-kinase [1] = test: Anti-IRS-1 precipitable PI3-kinase activity in MCF-7 cells; assay type: cell-based; details: 5 mins., ATA or EB 300 μg/ml
Experimental: FIG. 5 is the effect of ATA and EB on the anti-IRS-1 precipitable PI3-kinase activity: Cells were treated as in FIG. 3a. Anti-IRS-1 immunoprecipitates were washed and the pellets incubated with phosphatidyl inositol and γ^32 P-ATP.
Phosphorylation of phosphatidyl inositol was measured as follows. Cells were solubilized in Buffer C and the extracts immunoprecipitated at 4° C. with IRS-1 antibody and adsorbed onto protein A-Sepharose beads. The immunoprecipitates were washed three times with Buffer C and then washed once with Buffer B, Buffer E and Buffer F. The lipid kinase reaction was initated by addition of 100 μl sonicated phosphatidylinositol (10 μg) in kinase buffer (20 mM Hepes, pH 7.5, 10 mM MnCl2 and 10 mM MgCl2) containing 10 μCi [γ^32 P]ATP (3000 ci/m mol; Amersham). The reaction was performed at room temperature for 10 mins. and terminated by the addition of 100 μl 1 N HCl. Lipids were extracted by addition of 200 μl of a 1:1 mixture of chloroform/methanol, followed by vortexing and centrifugation at 14,000×g for 10 mins. The chloroform-containing lipid phase was then re-extracted with 150 μl of a 1:1 mixture of 1N HCl/methanol, followed by vortexing and centrifugation at 14,000×g for 10 mins. The 30 μl of the chloroform phase were resolved by thin layer chromatography using a chloroform/methanol/ammonium hydroxide (90:70:20 v/v)) running buffer. […]

PI3-kinase [2] = test: In vivo PI3-kinase activity in rat liver; details: Sprague-Dawley male rats, portal vein, 5 mins. after injection, EB 20 mg/rat, insulin 1 u/rat
Experimental: B--Induction of PI3-kinase. PI3-kinase activity, 5 mins. after injection was assayed as described in FIG. 9C. The results are representative of 2 to 4 independent experiments.
(§1) EB (20 mg/rat) or insulin (1 u/rat) was injected into about 120 g weighing Sprague-Dawley male rats, via the portal vein. Control rats were injected with saline (SAL) alone. The rats were killed and the livers excised and frozen in liquid nitrogen at the indicated times.

IRS-1 = IRS-1 tyrosine phosphorylation and association with p85 in FaO cells; assay type: cell-based, rat; details: 5 mins., EB 200 μg/ml, insulin 600 ng/ml
Experimental: (§2) FIG. 9 is the tyrosine phosphorylation of the IR cascade in Fao cells: A--Immunoblot analysis: Fao cells were deprived of serum for 20 hours, then incubated with EB, ATA, at 200 μg/ml or insulin at 600 ng/ml for 5 mins. Cell extracts were subjected to immunoprecipitation with antibodies to: IR β-subunit (αIR), IRS-1 (αIRS-1) and to IRS-2 (αIRS-2). The immunoprecipitates and total cell extracts were analyzed by SDS-PAGE. Proteins were transferred to nitrocellulose papers, and phosphotyrosine containing proteins were probed with anti-phosphotyrosine antibodies (αP-Tyr), antibody to the 85-kDa subunit of PI3-kinase (αp85) and antibodies to active MAPK (α active MAPK). The immunoblots were visualized by ECL (Amersham).
(§3) MCF-7 cells were grown in 35 or 100 mm dishes in DMEM with 5% bovine fetal serum. Rat hepato FaO cells were grown in RPMI 1640 medium supplemented with 10% fetal calf serum. Subconfluent monolayers of MCF-7 cells or FaO cells, were deprived of serum for 20 hours prior to each experiment. The medium was removed, and cells were incubated at 37° C. under the conditions as indicated for each experiment. […]
(§4) Nitrocellulose blots of proteins were incubated with the antibodies, and proteins were detected by enhanced chemiluminescence using horseradish peroxidase-labeled protein A, horseradish peroxidase-labeled anti rabbit IgG or horseradish peroxidase-labeled anti-mouse IgG. […]

[3] = high doses; cited from earlier work
[4] = test system: IR, IRS-1 and the 85-kDa regulatory subunit of PI3-kinase; test: In vivo tyrosine phosphorylation of the IR cascade in rat liver; details: Sprague-Dawley male rats, portal vein injection, EB 20 mg/rat, insulin 1 u/rat
Experimental: A--Immunoblot analysis. Rat liver extracts were subjected to immunoprecipitation and blotting with the indicated antibodies, as described in the legend to FIG. 9A.
as §1

MAPKs 1 and 2 = test: Activation of MAPKs in FaO cells; assay type: cell-based, rat; details: 5 mins., EB 200 μg/ml, insulin 600 ng/ml
Experimental: as §2
Nitrocellulose blots of proteins were incubated with the antibodies, and proteins were detected by enhanced chemiluminescence using horseradish peroxidase-labeled protein A, horseradish peroxidase-labeled anti rabbit IgG or horseradish peroxidase-labeled anti-mouse IgG.
In the rat hepatoma cell line FaO, EB and insulin, enhanced IRS-1 and IRS-2 tyrosine phosphorylation and their association with the 85-kDa regulatory subunit of the PI-kinase (FIG. 9A). PI3-kinase activity increases following its association with IRS-1 and IRS-2 (FIG. 9C). MAPKs 1 and 2 were activated by EB and insulin (FIG. 9A).

IRS-2 = IRS-2 tyrosine phosphorylation and association with p85 in FaO cells; assay type: cell-based, rat; details: 5 mins., EB 200 μg/ml, insulin 600 ng/ml
Experimental: as §2, §3, §4

3T3 L1 adipocytes = test: 2-deoxyglucose uptake in 3T3 L1 adipocytes; assay type: cell-based; details: 20 mins., EB, ATA 200 μg/ml, insulin 600 ng/ml
Experimental: FIG. 11 is the metabolic effects in 3T3 L1 adipocytes: Fully differentiated 3T3 L1 adipocytes were incubated with EB, ATA or fuchsin (FUCH) each at 200 μg/ml, or with 600 ng/ml of insulin for 20 mins. (A, B, C) or 5 mins. (D). CON indicates no additive.
A--2-deoxyglucose uptake. Hexose uptake was measured for 10 mins. using 50 μM 2-deoxy-(^3 H) glucose (1 μCi/ml). Non-specific uptake was determined in the presence of cytochalasin B (50 μM).

cells = details: apoptosis induced by growth factor deprivation or by drugs such as cycloheximide (CX); cited from earlier work

Structure (SMILES) | PI3-kinase activity (anti-IRS-1 precipitable) (PI3-kinase [1]) | PI3-kinase activity in liver (PI3-kinase [2]) | IRS-1 tyrosine phosphorylation and association with the 85-kDa regulatory subunit of PI-kinase (IRS-1) | Toxicity to humans [3] | Tyrosine phosphorylation of IR, IRS-1 and 85-kDa subunit of PI3-kinase in liver [4] | Activation of MAPKs 1 and 2 (MAPKs 1 and 2) | IRS-2 tyrosine phosphorylation and association with the 85-kDa regulatory subunit of PI-kinase (IRS-2) | Glucose uptake (3T3 L1 adipocytes) | Protection of cells from apoptosis (cells)
Cc1cc(-c2ccc(N=Nc3ccc4c(S(=O)(=O)O)cc(S(=O)(=O)O)c(N)c4c3O)c(C)c2)ccc1N=Nc1ccc2c(S(=O)(=O)O)cc(S(=O)(=O)O)c(N)c2c1O [EB, Evan's Blue] | increases PI3-kinase activity similar to IGF-1 | increased | enhanced | non-toxic to humans at high doses | phosphorylated tyrosines of IR, IRS-1 and the 85-kDa of the regulatory subunit of PI3-kinase | activated | enhanced | increase glucose uptake | –
O=C(O)C1=CC(=C(c2ccc(O)c(C(=O)O)c2)c2ccc(O)c(C(=O)O)c2)C=CC1=O [ATA, Aurintricarboxylic acid] | increases PI3-kinase activity similar to IGF-1 | – | – | – | – | – | – | increase glucose uptake | protect cells from apoptosis
